From patent publication US12195748B2, “Delivery across cell plasma membranes” (Avectas Limited, priority 2014, dated 2025)
“Also recorded” adds a separate entry of the source.

Tests used:
[1] = system: Jurkat cells; assay: Spray delivery into Jurkat suspension cells; format: cell-based; conditions: spray after removal of supernatant
Description: In this example, the delivery method across cell types was evaluated. […] The cell suspension was placed into a porous cell culture plate insert and a brief gentle vacuum of approximately −0.5 to −0.68 bar was applied for 20-45 sec to remove supernatant before the cells were sprayed (FIG. 41A and FIG. 42).

[2] = system: A549 cells; assay: Spray-mediated delivery of payloads to A549 cells (fluorescence microscopy, flow cytometry); format: cell-based, human
Description: Each well of the plate was treated as follows: cell culture medium was removed from the well using a micropipette. Optionally, the well was rinsed twice with 250 μL phosphate buffered saline (PBS) using a micropipette. 20 μL of Solution A containing molecules to be delivered was delivered to the cells using the atomizer. The plate was incubated at room temperature for a period of 30 seconds to 2 minutes depending on the size of the molecule to be delivered, following which 250 μL of Solution B was added to the well using a micropipette. The plate was then incubated at room temperature for 30 seconds, at which time Solution B was removed from the well using a micropipette. 500 μL of culture medium was added to the well using a micropipette. The cells were then returned to a humidified atmosphere with 5% CO^2 at 37° C.
Fluorescence Microscopy. Fluorescein isothiocyanate (FITC)- and DyLight Phosphoramidite (DY547)-labelled molecules were used in accordance with the manufacturer's instructions. Labelled molecules to be delivered to the cells were added to Solution A and delivered to cells as described above herein. Following delivery, the plate was placed onto the stage of a fluorescent microscope (Olympus CKX 41) and the cells were viewed using filters to visualize fluorescence. Photomicrographs were acquired.
Flow Cytometry. […] The cell suspension was loaded into a flow cytometer [Accuri Flow Cytometyer, BD Biosciences] and the fluorescence was analyzed according to manufacturer's instruction. […]

[3] = system: A549 cells; assay: Micropipette-mediated delivery of payloads to A549 cells (uptake); format: cell-based, human; conditions: 24-well plates
Description: FIG. 19 is a graph illustrating Micropipette-mediated delivery of payloads in either 200 μl or 20 μl delivery solution to A549 cells in 24-well plates. Uptake efficiency was measured by flow cytometry (5% m bar) and toxicity was measured by lactate dehydrogenase (LDH) release compared to lysed cells positive control.
Cells were seeded into 24-well plates on Day 0 such that they were 80-90% confluent on Day 1 when delivery was carried out. […] Cells were incubated for 2 min at room temperature (RT) to facilitate uptake. To further facilitate uptake and prevent cell dehydration, 200 μl 0.5×-PBS was then added and cells were incubated for a further 30 sec. This solution was then removed and 400 μl culture medium was added. The cells were then analyzed by fluorescence microscopy.

[4] = system: cells; assay: Delivery of molecules to cells, spray apparatus versus micropipette (Examples 2-12); format: cell-based
Source text: Delivery of Molecules. An intranasal mucosal atomization device commercially available from LMA Teleflex of NC, USA under catalogue number MAD300 and including an atomizer emitter was set up as follows: the atomizer emitter was positioned 31 mm from the base of the 24-well plate and above the center point of each circular well of the plate. The atomizer emitter was adjusted to allow a pressure of 1.5 bar. A timer was utilized to dispense spray from the atomizer emitter for a period of 1 second. The atomizer emitter was primed by rinsing three times with Solution A containing molecules to be delivered.
Each well of the plate was treated as follows: cell culture medium was removed from the well using a micropipette. Optionally, the well was rinsed twice with 250 μL phosphate buffered saline (PBS) using a micropipette. 20 μL of Solution A containing molecules to be delivered was delivered to the cells using the atomizer. The plate was incubated at room temperature for a period of 30 seconds to 2 minutes depending on the size of the molecule to be delivered, following which 250 μL of Solution B was added to the well using a micropipette. The plate was then incubated at room temperature for 30 seconds, at which time Solution B was removed from the well using a micropipette. 500 μL of culture medium was added to the well using a micropipette. […]
Fluorescence Microscopy. […] Following delivery, the plate was placed onto the stage of a fluorescent microscope (Olympus CKX 41) and the cells were viewed using filters to visualize fluorescence. […]
Flow Cytometry. […] The cell suspension was loaded into a flow cytometer [Accuri Flow Cytometyer, BD Biosciences] and the fluorescence was analyzed according to manufacturer's instruction.
Cell Viability. Following delivery, cell viability was assessed using the CellTiter 96® AQueous One Solution Cell Proliferation Assay (MTS) (Promega) according to the manufacturer's instructions. […] 100 μL of solution was removed from the well and placed into a 96-well plate and absorbance was read at 450 nm using a GloMax 96 Microplate luminometer [Promega].

[5] = system: A549 cells; assay: Incubation of A549 cells in S Buffer (Medepalli conditions); format: cell-based, human; conditions: 5 min at 4° C.
Source text: A vector-free delivery method was developed based on reversible permeabilisation that would facilitate delivery of payloads into cells in a manner that would retain cell viability and payload functionality. As other groups have done, the following hypothesis was utilized: firstly, permeabilisation could be induced by chemical modification of the cell membrane; secondly, delivery could be enhanced via osmotic pressure brought about by using a hypotonic delivery solution whereby influx of water into the permeabilised cells facilitated influx of a payload and thirdly, cell survival could be enhanced if the hypotonic delivery solution was also buffered and physiological. Based on initial observations, further hypotheses were developed and refined as described later here. For chemical permeabilisation, the most common permeabilising agents are detergents which interact with certain components in cell membranes to create holes (Hapala, I., Crit Rev. Biotech. 1997; 17(2): 105-22). […] (Medepalli K. et al., Nanotechnology 2013; 24(20)). In some examples, potassium acetate is replaced with ammonium acetate in the “S” buffer. They also stated that delivery could be enhanced by adding saponin to the solution. […] Organic solvents such as alcohols can permeabilise cells by dissolving lipid from the cell membrane. […]

[6] = system: CHO cells; assay: Spray delivery of labelled proteins into CHO cells; format: cell-based, Chinese hamster; conditions: for delivery of labelled protein into cells: FITC or Alexa-488 label
Source text: A notable application of delivery technology is the intracellular delivery of proteins. Proteins are a very diverse group in terms of their size, shape and chemistry and few methods are currently available for efficient delivery of these molecules. A broad range of proteins of increasing sizes from 18.3 kDa to 443 kDa were labeled with either FITC or Alexa-488 and their delivery by spraying was examined. […] A general trend towards declining delivery efficiencies with increasing size of protein (FIG. 44) was observed.

[7] = DAPI, phallotoxin and MitoTracker Red together

## N=C(N)c1ccc(-c2cc3ccc(C(=N)N)cc3[nH]2)cc1 [DAPI, 4′,6-diamidino-2-phenylindole]
[1]
  delivery to suspension cells: successfully delivered
[2]; 10-kDa dextran-Alexa488 and DAPI together
  co-delivery into cells: successfully co-delivered
[2]; [7]
  co-delivery into cells: successfully co-delivered

## ClCc1ccc(C2=c3cc4c5c(c3Oc3c2cc2c6c3CCCN6CCC2)CCC[N+]=5CCC4)cc1.[Cl-] [MitoTracker Red]
[1]
  delivery to suspension cells: successfully delivered
[2]; [7]
  co-delivery into cells: successfully co-delivered

## CC[N+](C)(CC)CCC[n+]1c(-c2ccccc2)c2cc(N)ccc2c2ccc(N)cc21.[I-].[I-] [PI, propidium iodide]
[3]; 20 μL delivery solution
  uptake viewed by fluorescent microscopy: apparent at the edge of the well but not in the center; also recorded: apparent in some areas of the well but not in others
[3]; 200 μL delivery solution
  uptake viewed by fluorescent microscopy: most cells immediately stained positive
[3]; 200 μL delivery solution, listed as Propidium iodide
  uptake viewed by fluorescent microscopy: uptake was visible throughout the cell population
[4]; Example 3, 150 μM, 20 or 40% ethanol
  delivery rate (percent of cells showing successful delivery), spray compared to micropipette: increases the delivery rate
[4]; Example 3, micropipette, 40% (v/v) ethanol
  delivery in viable cells: no delivery of molecules was detected in viable cells
[4]; Example 4, spray, 25% ethanol, same matrix
  simultaneous delivery of two molecules into the cell: results in delivery of the molecule into the cell

## dextran
[5]
  uptake: did not observe uptake

## ovalbumin: protein labelled with FITC and delivered into CHO cells
[6]
  delivery of labelled protein into cells: successfully delivered
[6]; immunofluorescence
  detection of delivered protein with anti-ovalbumin antibody: detected by immunofluorescence

B1: catalase: protein labelled with FITC and delivered into CHO cells (protein, UniProt P00432 2-527, looked up)
Catalase: ADNRDPASDQMKHWKEQRAAQKPDVLTTGGGNPVGDKLNSLTVGPRGPLLVQDVVFTDEMAHFDRERIPERVVHAKGAGAFGYFEVTHDITRYSKAKVFEHIGKRTPIAVRFSTVAGESGSADTVRDPRGFAVKFYTEDGNWDLVGNNTPIFFIRDALLFPSFIHSQKRNPQTHLKDPDMVWDFWSLRPESLHQVSFLFSDRGIPDGHRHMNGYGSHTFKLVNANGEAVYCKFHYKTDQGIKNLSVEDAARLAHEDPDYGLRDLFNAIATGNYPSWTLYIQVMTFSEAEIFPFNPFDLTKVWPHGDYPLIPVGKLVLNRNPVNYFAEVEQLAFDPSNMPPGIEPSPDKMLQGRLFAYPDTHRHRLGPNYLQIPVNCPYRARVANYQRDGPMCMMDNQGGAPNYYPNSFSAPEHQPSALEHRTHFSGDVQRFNSANDDNVTQVRTFYLKVLNEEQRKRLCENIAGHLKDAQLFIQKKAVKNFSDVHPEYGSRIQALLDKYNEEKPKNAVHTYVQHGSHLSAREKANL
modifications: FITC label
notes: protein labelled with FITC and delivered into CHO cells
[6]
  delivery of labelled protein into cells: successfully delivered
